{"source": "patent US20070135490A1", "about": "“Phenetanolamine derivatives” (priority 2003, published 2007)", "data": [{"target": "T1, human beta-2 receptor (Homo sapiens, UniProt P07550)", "T1 construct": "expressed in transfected cells; host or cells: Chinese hamster ovary cells (whole cells or membranes derived from them)", "T1 sequence (P07550 whole entry)": "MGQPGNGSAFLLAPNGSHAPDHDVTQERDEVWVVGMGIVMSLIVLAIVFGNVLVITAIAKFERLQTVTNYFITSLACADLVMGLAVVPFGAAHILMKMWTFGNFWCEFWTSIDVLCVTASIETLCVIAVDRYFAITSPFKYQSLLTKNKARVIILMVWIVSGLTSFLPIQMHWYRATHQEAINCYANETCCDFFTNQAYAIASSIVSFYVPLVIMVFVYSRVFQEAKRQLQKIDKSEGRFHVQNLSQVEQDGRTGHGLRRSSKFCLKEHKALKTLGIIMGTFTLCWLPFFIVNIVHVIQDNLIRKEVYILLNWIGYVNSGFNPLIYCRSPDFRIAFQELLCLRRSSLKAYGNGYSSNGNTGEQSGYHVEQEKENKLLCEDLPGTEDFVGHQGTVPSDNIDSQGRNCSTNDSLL", "test": "Chinese hamster ovary cells co-expressing the human receptor with a reporter gene, cAMP measurement in whole cells or membranes (Method 2)", "format": "cell-based", "settings": "CHO cells or membranes, read-out: pEC50 at the human beta-2 receptor (converted)", "experimental": "Potency of compounds of the invention at the human beta 2, 1 and 3 receptors was also determined using Chinese hamster ovary cells co-expressing the human receptor with a reporter gene. Studies were performed using either whole cells or membranes derived from those cells.\nThe three beta-receptors are coupled via the Gs G-protein to cause a simulation of adenylate cyclase resulting in increased levels of cAMP in the cell. For direct cAMP measurements either membranes or cells have been used with either the HitHunter enzyme fragment complementation kit (DiscoveRx) or the FP^2 fluorescence polarisation kit (Perkin Elmer) to quantify the levels of cAMP present. These assays provide a measure of agonist potency and intrinsic activity of the compounds at the various receptors. […]\nIn this assay the potency of compounds at the human beta-2 receptor is expressed as a pEC50 value. Compounds of examples 12-26, 28-50 and 52-64 had pEC50 values greather than 6. […] No result is available for the compound of example 51.", "units": {"EC50": "µM"}, "values": [{"smiles": "OCc1cc([C@@H](O)CNCCc2cccc(COCCCCc3c(Cl)cccc3Cl)c2)ccc1O", "note": "[Example 57, Formic acid compound with 4-((1R)-2-{[2-(3-{[4-(2,6-dichlorophenyl)butoxy]methyl}phenyl)ethyl]amino}-1-hydroxyethyl)-2-(hydroxymethyl)phenol (1:1)]", "EC50": "< 1"}, {"smiles": "C[C@H](OCc1cccc(CCNC[C@H](O)c2ccc(O)c(CO)c2)c1)c1ccccc1", "note": "[Example 45, Formic acid compound with 2-(hydroxymethyl)-4-[(1R)-1-hydroxy-2-({2-[3-({[(1S)-1-phenylethyl]oxy}methyl)phenyl]ethyl}amino)ethyl]phenol (1:1)]", "EC50": "< 1"}, {"smiles": "O=S(=O)(c1cccc(CCCCOCc2cccc(CCNC[C@H](O)c3ccc(O)c(CO)c3)c2)c1)C1CCCC1", "note": "[Example 61, Formic acid compound with 4-[(1R)-2-({2-[3-({4-[3-(cyclopentylsulfonyl)phenyl]butoxy}methyl)phenyl]ethyl}amino)-1-hydroxyethyl]-2-(hydroxymethyl)phenol (1:1)]", "EC50": "< 1"}, {"smiles": "[O-][S+](c1cccc(COCCOCc2cccc(CCNC[C@H](O)c3ccc(O)c(CO)c3)c2)c1)C1CCCC1", "note": "(stereo partly drawn) [Example 34, Formic acid compound with 4-{(1R)-2-[(2-{3-[(2-{[3-(cyclopentylsulfinyl)benzyl]oxy}ethoxy)methyl]phenyl}ethyl)amino]-1-hydroxyethyl}-2-(hydroxymethyl)phenol (1:1)]", "EC50": "< 1"}, {"smiles": "N#Cc1cccc(CCCOCc2cccc(CCNC[C@H](O)c3ccc(O)c(CO)c3)c2)c1", "note": "[Example 22, Formic acid compound with 3-[3-({3-[2-({(2R)-2-hydroxy-2-[4-hydroxy-3-(hydroxymethyl)phenyl]ethyl}amino)ethyl]benzyl}oxy)propyl]benzonitrile (1:1)]", "EC50": "< 1"}, {"smiles": "O=S(=O)(c1ccc(CCCOCc2cccc(CCNC[C@H](O)c3ccc(O)c(CO)c3)c2)cc1)C1CCCC1", "note": "[Example 30, Formic acid compound with 4-[(1R)-2-({2-[3-({3-[4-(cyclopentylsulfonyl)phenyl]propoxy}methyl)phenyl]ethyl}amino)-1-hydroxyethyl]-2-(hydroxymethyl)phenol (1:1)]", "EC50": "< 1"}, {"smiles": "OCc1cc([C@@H](O)CNCCc2cccc(COCc3ccc(O)cc3)c2)ccc1O", "note": "[Example 26, Formic acid compound with 4-((1R)-1-hydroxy-2-{[2-(3-{[(4-hydroxybenzyl)oxy]methyl}phenyl)ethyl]amino}ethyl)-2-(hydroxymethyl)phenol (1:1)]", "EC50": "< 1"}, {"smiles": "OCc1cc([C@@H](O)CNCCc2cccc(COCCc3ccccc3O)c2)ccc1O", "note": "[Example 25, Formic acid compound with 4-((1R)-1-hydroxy-2-{[2-(3-{[2-(2-hydroxyphenyl)ethoxy]methyl}phenyl)ethyl]amino}ethyl)-2-(hydroxymethyl)phenol (1:1)]", "EC50": "< 1"}, {"smiles": "OCc1cc([C@@H](O)CNCCc2cccc(COCc3ccc(F)cc3)c2)ccc1O", "note": "[Example 50, Formic acid compound with 4-((1R)-2-{[2-(3-{[(4-fluorobenzyl)oxy]methyl}phenyl)ethyl]amino}-1-hydroxyethyl)-2-(hydroxymethyl)phenol (1:1)]", "EC50": "< 1"}, {"smiles": "N#Cc1cccc(CCCCOCc2cccc(CCNC[C@H](O)c3ccc(O)c(CO)c3)c2)c1", "note": "[Example 37, Formic acid compound with 3-[4-({3-[2-({(2R)-2-hydroxy-2-[4-hydroxy-3-(hydroxymethyl)phenyl]ethyl}amino)ethyl]benzyl}oxy)butyl]benzonitrile (1:1)]", "EC50": "< 1"}, {"smiles": "CC(OCCOCc1cccc(CCNC[C@H](O)c2ccc(O)c(CO)c2)c1)c1ccccc1", "note": "(stereo partly drawn) [Example 59, Formic acid compound with 2-(hydroxymethyl)-4-((1R)-1-hydroxy-2-{[2-(3-{[2-(1-phenylethoxy)ethoxy]methyl}phenyl)ethyl]amino}ethyl)phenol (1:1)]", "EC50": "< 1"}, {"smiles": "CS(=O)(=O)c1ccc(CCCOCc2cccc(CCNC[C@H](O)c3ccc(O)c(CO)c3)c2)cc1", "note": "[Example 23, Formic acid compound with 2-(hydroxymethyl)-4-[(1R)-1-hydroxy-2-({2-[3-({3-[4-(methylsulfonyl)phenyl]propoxy}methyl)phenyl]ethyl}amino)ethyl]phenol (1:1)]", "EC50": "< 1"}, {"smiles": "CS(=O)(=O)c1cccc(CCCCOCc2cccc(CCNC[C@H](O)c3ccc(O)c(CO)c3)c2)c1", "note": "[Example 62, Formic acid compound with 2-(hydroxymethyl)-4-[(1R)-1-hydroxy-2-({2-[3-({4-[3-(methylsulfonyl)phenyl]butoxy}methyl)phenyl]ethyl}amino)ethyl]phenol (1:1)]", "EC50": "< 1"}, {"smiles": "O=S(=O)(c1cccc(COCCOCc2cccc(CCNC[C@H](O)c3ccc(O)c(CO)c3)c2)c1)C1CCCC1", "note": "[Example 33, Formic acid compound with 4-{(1R)-2-[(2-{3-[(2-{[3-(cyclopentylsulfonyl)benzyl]oxy}ethoxy)methyl]phenyl}ethyl)amino]-1-hydroxyethyl}-2-(hydroxymethyl)phenol (1:1)]", "EC50": "< 1"}, {"smiles": "OCc1cc([C@@H](O)CNCCc2cccc(COCCOCc3cccc(OC(F)(F)F)c3)c2)ccc1O", "note": "[Example 18, Formic acid compound with 2-(hydroxymethyl)-4-{(1R)-1-hydroxy-2-[(2-{3-[(2-{[3-(trifluoromethoxy)benzyl]oxy}ethoxy)methyl]phenyl}ethyl)amino]ethyl}phenol (1:1)]", "EC50": "< 1"}, {"smiles": "N#Cc1ccc(CCCCOCc2cccc(CCNC[C@H](O)c3ccc(O)c(CO)c3)c2)cc1", "note": "[Example 21, Formic acid compound with 4-[4-({3-[2-({(2R)-2-hydroxy-2-[4-hydroxy-3-(hydroxymethyl)phenyl]ethyl}amino)ethyl]benzyl}oxy)butyl]benzonitrile (1:1)]", "EC50": "< 1"}, {"smiles": "OCc1cc([C@@H](O)CNCCc2cccc(COCCOCc3cccc(F)c3)c2)ccc1O", "note": "[Example 15, Formic acid compound with 4-[(1R)-2-({2-[3-({2-[(3-fluorobenzyl)oxy]ethoxy}methyl)phenyl]ethyl}amino)-1-hydroxyethyl]-2-(hydroxymethyl)phenol (1:1)]", "EC50": "< 1"}, {"smiles": "N#Cc1ccc(CCCOCc2cccc(CCNC[C@H](O)c3ccc(O)c(CO)c3)c2)cc1", "note": "[Example 20, Formic acid compound with 4-[3-({3-[2-({(2R)-2-hydroxy-2-[4-hydroxy-3-(hydroxymethyl)phenyl]ethyl}amino)ethyl]benzyl}oxy)propyl]benzonitrile (1:1)]", "EC50": "< 1"}, {"smiles": "N#Cc1cccc(COCCOCc2cccc(CCNC[C@H](O)c3ccc(O)c(CO)c3)c2)c1", "note": "[Example 13, Formic acid compound with 3-{[2-({3-[2-({(2R)-2-hydroxy-2-[4-hydroxy-3-(hydroxymethyl)phenyl]ethyl}amino)ethyl]benzyl}oxy)ethoxy]methyl}benzonitrile (1:1)]", "EC50": "< 1"}, {"smiles": "N#Cc1cccc(COCc2cccc(CCNC[C@H](O)c3ccc(O)c(CO)c3)c2)c1", "note": "[Example 42, Formic acid compound with 3-[({3-[2-({(2R)-2-hydroxy-2-[4-hydroxy-3-(hydroxymethyl)phenyl]ethyl}amino)ethyl]benzyl}oxy)methyl]benzonitrile (1:1)]", "EC50": "< 1"}, {"smiles": "NC(=O)c1cccc(COCCOCc2cccc(CCNC[C@H](O)c3ccc(O)c(CO)c3)c2)c1", "note": "[Example 52, Formic acid compound with 3-{[2-({3-[2-({(2R)-2-hydroxy-2-[4-hydroxy-3-(hydroxymethyl)phenyl]ethyl}amino)ethyl]benzyl}oxy)ethoxy]methyl}benzamide (1:1)]", "EC50": "< 1"}, {"smiles": "C[C@@H](OCc1cccc(CCNC[C@H](O)c2ccc(O)c(CO)c2)c1)c1ccccc1", "note": "[Example 44, Formic acid compound with 2-(hydroxymethyl)-4-[(1R)-1-hydroxy-2-({2-[3-({[(1R)-1-phenylethyl]oxy}methyl)phenyl]ethyl}amino)ethyl]phenol (1:1)]", "EC50": "< 1"}, {"smiles": "OCc1cc([C@@H](O)CNCCc2cccc(COCCCc3c(Cl)cccc3Cl)c2)ccc1O", "note": "[Example 63, Formic acid compound with 4-((1R)-2-{[2-(3-{[3-(2,6-dichlorophenyl)propoxy]methyl}phenyl)ethyl]amino}-1-hydroxyethyl)-2-(hydroxymethyl)phenol (1:1)]", "EC50": "< 1"}, {"smiles": "N#Cc1ccc(COCc2cccc(CCNC[C@H](O)c3ccc(O)c(CO)c3)c2)cc1", "note": "[Example 43, Formic acid compound with 4-[({3-[2-({(2R)-2-hydroxy-2-[4-hydroxy-3-(hydroxymethyl)phenyl]ethyl}amino)ethyl]benzyl}oxy)methyl]benzonitrile (1:1)]", "EC50": "< 1"}, {"smiles": "Cc1cc(C)cc(COCCOCc2cccc(CCNC[C@H](O)c3ccc(O)c(CO)c3)c2)c1", "note": "[Example 16, Formic acid compound with 4-[(1R)-2-({2-[3-({2-[(3,5-dimethylbenzyl)oxy]ethoxy}methyl)phenyl]ethyl}amino)-1-hydroxyethyl]-2-(hydroxymethyl)phenol (1:1)]", "EC50": "< 1"}, {"smiles": "OCc1cc([C@@H](O)CNCCc2cccc(COCCOCc3c(Cl)cccc3Cl)c2)ccc1O", "note": "[Example 14, Formic acid compound with 4-[(1R)-2-({2-[3-({2-[(2,6-dichlorobenzyl)oxy]ethoxy}methyl)phenyl]ethyl}amino)-1-hydroxyethyl]-2-(hydroxymethyl)phenol (1:1)]", "EC50": "< 1"}]}]}
